This passage reports IC50 results from US20240270758A1, “PYRIDINO-OR PYRIMIDO-CYCLIC COMPOUND, PREPARATION METHOD THEREFOR AND MEDICAL USE THEREOF” (Genfleet Therapeutics (Shanghai) Inc., priority 2021, published 2024).

What all share (assay type): cell-based, human
Experiment [1] deals with p-ERK in AGS cells (KRAS^G12D mutation). The experiment can be described thus: Cell p-ERK detection assay. Conditions: 3 h incubation, HTRF. As to the method: AGS was purchased from ATCC; Cat. NO.: CRL-1739; F12K was purchased from Gibco; Cat. NO.: 21127-022; FBS was purchased from Gibco; Cat. NO.: 10099-141C; Trypsin (containing EDTA) was purchased from Gibco; Cat. NO.: 25200-072; DMSO was purchased from VWRAMRESCO; Cat. NO.: 0231-500ML; 96-well cell culture plate was purchased from Corning; Cat. NO.: 3599; An white background opaque 96-well plate was purchased from Cisbio; Cat. NO.: 66PL96025; Advance ERK phospho-T202/Y204 kit was purchased from Cisbio; Cat. NO.: 64AERPEH; Cell Counters were purchased from CHEMOMETEC; Model NO.: NC-200; microplate reader was purchased from PerkinElmer; Model NO.: Envison.
AGS is an endogenous human gastric adenocarcinoma cell line containing KRAS^G12D mutation, cultured in F12K+10% FBS medium. On the first day of the experiment, cells in the logarithmic growth phase were taken, digested with trypsin (containing EDTA), collected, and counted, and approximately 20,000 cells/well were inoculated in 96-well cell culture plates and cultured overnight in a 5% CO2 incubator. A 1000×3.16-fold gradient concentration stock of the compound was prepared using DMSO, diluted 200-fold into a 5× compound stock using the medium described above, and a 5× compound stock was added to each cell culture well the day after cell inoculating at a final concentration of 1× and a DMSO content of 0.1%. DMSO was used as an experimental control. After the compound was added and the incubation was continued for 3 h, the medium in the culture wells was removed, […] of cell lysis solution (from Advance ERK phospho-T202/Y204 kit, the same below) was added to each well, mixed well and incubated for 30 min, then […] of the mixed solution was transferred to a white background opaque 96-well plate, and another well was taken as a blank well with adding […] of cell lysis solution. After the transfer, […] of p-ERK HTRF antibody mixed solution (from Advance ERK phospho-T202/Y204 kit) was added to each well, after incubation for 4 h, HTRF fluorescence value (RLU) was read by a microplate reader, and p-ERK level inhibition ratio of the compound was calculated IR (%)=(RLU control-RLU compound)/(RLU control-RLU blank)×100%, compound concentration and corresponding cell p-ERK level inhibition ratio were fitted using Prism 8 four-parameter method, and IC50 value was calculated.

The test system of experiment [2] is AGS cells (KRAS^G12D mutation). Nature of the experiment: Cell proliferation inhibition assay (3D, CellTiter-Glo), AGS. Conditions: 3D cell model, 5 days. From the text:
(§1) AsPC-1 was purchased from ATCC; Cat. NO.: CRL-1682; AGS was purchased from ATCC; Cat. NO.: CRL-1739; RPMI1640 was purchased from Gibco; Cat. NO.: 11875-093 2235123; F12K was purchased from Gibco; Cat. NO.: 21127-022; FBS was purchased from Gibco; Cat. NO.: 10099-141C; Trypsin (containing EDTA) was purchased from Gibco; Cat. NO.: 25200-072; CellTiter Glo-3D was purchased from Progema; Cat. NO.: G9683; 384-well sphere plates were purchased from coming; Cat. NO.: 3830; White background opaque 384-well plates were purchased from coming; Cat. NO.: 3570; Cell Counters were purchased from CHEMOMETEC; Model NO.: NC-200; microplate reader was purchased from PerkinElmer; Model NO.: Envison;
(§2) AsPC-1 is an endogenous human pancreatic cancer cell containing KRAS^G12D mutation, which is cultured in RPMI-1640 medium containing 10% FBS; AGS human gastric cancer cell line containing KRAS^G12D mutation, cultured in F-12K medium containing 10% FBS. Cells in the logarithmic growth phase were taken, digested with trypsin (containing EDTA), harvested and counted, and inoculated with 800 AsPC-1 cells/well or 400 AGS cells/well, respectively, in 384-well sphere plates and cultured overnight at 5% C02 to establish a 3D cell model. A 3.16-fold gradient concentration stock solution of 1000× compound was prepared using DMSO, diluted 100-fold into a 10× compound stock solution using media, and a 10× compound stock solution was added to each cell culture well the day after cell inoculating at a final concentration of 1× with a DMSO content of 0.1%. DMSO was used as an experimental control (control) and culture medium as a blank control (blank). After the addition of compounds, the cells were cultured for 5 days. […] CellTiter-Glo working solution was added to each well, mixed well, and incubated for 30 min. After standing for 30 min at room temperature, 40 μl of the mixed solution was transferred to a white background opaque 384-well plate. Luminescence chemiluminescence value was read on a microplate reader, and the cell proliferation inhibition ratio was calculated, IR (%)=(RLU control-RLU compound)/(RLU control-RLU blank)×100%. XLFit four-parameter method was used to fit the gradient dilution concentration of compounds and the corresponding cell proliferation inhibition ratio, and the IC50 value was calculated. […] Results for exemplary of the example compounds are shown in Table 3 below. - indicates not detected.
For orientation: In ATP-based viability assays light output follows the ATP content of the culture.

Experiment [3] concerns AsPC-1 cells (KRAS^G12D mutation). Nature of the experiment: Cell proliferation inhibition assay (3D, CellTiter-Glo), AsPC-1. Conditions: 3D cell model, 5 days.
Source text: as §1, §2

Each structure is given as a SMILES string.

By IC50 is commonly meant the concentration that inhibits the measured activity by half. A lower IC50 goes with greater potency in that assay.

Regarding `C#Cc1cccc2cc(O)cc(-c3ncc4c(N5C[C@H]6CC[C@@H](C5)N6)nc(OCC56CCC7(CC7)N5CC(=C)C6)nc4c3F)c12` (stereo partly drawn) [Example Z22, 4-(4-((1R,5S)-3,8-diazabicyclo[3.2.1]oct-3-yl)-8-fluoro-2-((6′-methylenetetrahydrospiro[cyclopropane-1,3′-pyrrolizin]-7a′(5′H)-yl)methoxy)pyrido[4,3-d]pyrimidin-7-yl)-5-ethynylnaphthalen-2-ol], the IC50 in experiment [1] (Homo sapiens, AGS, 3 h) was determined as 2.41 nM; in experiment [2] (Homo sapiens, AGS, 120 h), 10.8 nM; in experiment [3] (Homo sapiens, ASPC1, 120 h) it was 75.4 nM.

Turning to `C#Cc1cccc2cc(O)cc(-c3ncc4c(N5C[C@H]6CC[C@@H](C5)N6)nc(OCC56CC(=C)CN5CC5(CC5)C6)nc4c3F)c12` (stereo partly drawn) [Example Z23, 4-(4-((1R,5S)-3,8-diazabicyclo[3.2.1]octan-3-yl)-8-fluoro-2-((6′-methylenedihydro-1′H,3′H-spiro[cyclopropane-1,2′-pyrrolizin]-7a′(5′H)-yl)methoxy)pyrido[4,3-d]pyrimidin-7-yl)-5-ethynylnaphthalen-2-ol], the IC50 is 0.76 nM in experiment [1] (Homo sapiens, AGS, 3 h); 4.7 nM in experiment [2] (Homo sapiens, AGS, 120 h); 33.2 nM in experiment [3] (Homo sapiens, ASPC1, 120 h).

Turning to `C=C1CN2CCCC2(COc2nc(N3C[C@H]4CC[C@@H](C3)N4)c3cnc(-c4cc(O)cc5cccc(F)c45)c(F)c3n2)C1` (stereo partly drawn) [Example Z24, 4-(4-((1R,5S)-3,8-diazabicyclo[3.2.1]octan-3-yl)-8-fluoro-2-((2-methylenetetrahydro-1H-pyrrolizin-7a(5H)-yl)methoxy)pyrido[4,3-d]pyrimidin-7-yl)-5-fluoronaphthalen-2-ol], the IC50 is 3.59 nM in experiment [1] (Homo sapiens, AGS, 3 h); 3.3 nM in experiment [2] (Homo sapiens, AGS, 120 h); 56 nM in experiment [3] (Homo sapiens, ASPC1, 120 h).

Turning to `C#Cc1cccc2cc(O)cc(-c3ncc4c(N5C[C@H]6CC[C@@H](C5)N6)nc(OCC56CCCN5CCC6=C)nc4c3F)c12` (stereo partly drawn) [Example Z25, 4-(4-((1R,5S)-3,8-diazabicyclo[3.2.1]octan-3-yl)-8-fluoro-2-((1-methylenetetrahydro-1H-pyrrolizin-7a(5H)-yl)methoxy)pyrido[4,3-d]pyrimidin-7-yl)-5-ethynylnaphthalen-2-ol], the IC50 in experiment [1] (Homo sapiens, AGS, 3 h) was determined as 6.84 nM; in experiment [2] (Homo sapiens, AGS, 120 h) it was 24.9 nM; in experiment [3] (Homo sapiens, ASPC1, 120 h), 70.7 nM.

As to `C#Cc1cccc2cc(O)cc(-c3ncc4c(N5C[C@H]6CC[C@@H](C5)N6)nc(OCC56CCCN5CC(=C(F)F)C6)nc4c3F)c12` (stereo partly drawn) [Example Z27, 4-(4-((1R,5S)-3,8-diazabicyclo[3.2.1]octan-3-yl)-2-((2-(difluoromethylene)tetrahydro-1H-pyrrolizine 7a(5H)-yl)methoxy)-8-fluoropyrido[4,3-d]pyrimidin-7-yl)-5-ethynylnaphthalen-2-ol], the IC50 in experiment [1] (Homo sapiens, AGS, 3 h) was determined as 1.1 nM; in experiment [2] (Homo sapiens, AGS, 120 h) it was 3.1 nM; in experiment [3] (Homo sapiens, ASPC1, 120 h), 6.9 nM.

As for `C#Cc1cccc2cc(O)cc(-c3ccc4c(N5CC6CCC(C5)N6)nc(OCC56CCCN5CC(=C)C6)nc4c3F)c12` [Example Z99, 4-(4-(1R,5S)-3,8-diazabicyclo[3.2.1]octan-3-yl)-8-fluoro-2-((2-methylenetetrahydro-1H-pyrrolizin-7a(5H)-yl)methoxy)quinazolin-7-yl)-5-ethynylnaphthalen-2-ol], the IC50 was 2.9 nM in experiment [1], 5.2 nM in experiment [2] and 36.6 nM in experiment [3].

`C#Cc1cccc2cc(O)cc(-c3ncc4c(N5C[C@H]6CC[C@@H](C5)N6)nc(OCC56CC(=C)CN5CCC65CC5)nc4c3F)c12` (stereo partly drawn) [Example Z106, 4-(4-((1R,5S)-3,8-diazabicyclo[3.2.1]octan-3-yl)-8-fluoro-2-((6′-methylenetetrahydrospiro[cyclopropane-1,1′-pyrrolizin]-7a′(5′H)-yl)methoxy)pyrido[4,3-d]pyrimidin-7-yl)-5-ethynylnaphthalen-2-ol]: the IC50 was 1.36 nM in experiment [1] (Homo sapiens, AGS, 3 h); 4.6 nM in experiment [2] (Homo sapiens, AGS, 120 h); 14.7 nM in experiment [3] (Homo sapiens, ASPC1, 120 h).

For the compound `C#Cc1cccc2cccc(-c3ncc4c(N5C[C@H]6CC[C@@H](C5)N6)nc(OCC56CC(=C)CN5CC(=C)C6)nc4c3F)c12` [Example Z190, 4-((1R,5S)-3,8-diazabicyclo[3.2.1]octan-3-yl)-2-((2,6-dimethylenetetrahydro-1H-pyrrolizin-7a(5H)-yl)methoxy)-7-(8-ethynylnaphthalen-1-yl)-8-fluoropyrido[4,3-d]pyrimidine], the IC50 in experiment [1] (Homo sapiens, AGS, 3 h) came to 105 nM; in experiment [2] (Homo sapiens, AGS, 120 h), 204 nM; in experiment [3] (Homo sapiens, ASPC1, 120 h) it was 485 nM.

On to `C#Cc1cccc2cc(N)cc(-c3ncc4c(N5C[C@H]6CC[C@@H](C5)N6)nc(OCC56CC(=C)CN5CC(=C)C6)nc4c3F)c12` [Example Z206, 4-(4-((1R,5S)-3,8-diazabicyclo[3.2.1]octan-3-yl)-2-((2,6-dimethylenetetrahydro-1H-pyrrolizin-7a(5H)-yl)methoxy)-8-fluoropyrido[4,3-d]pyrimidin-7-yl)-5-ethynylnaphthalen-2-amine], for which the IC50 was found to be 5.47 nM in experiment [1], 20.1 nM in experiment [2] and 35.4 nM in experiment [3].

Consider `C#Cc1cccc2cc(O)cc(-c3ncc4c(N5C[C@@H]6CC[C@@H](N6)[C@H]5C)nc(OCC56CC(C)CN5CC(C)C6)nc4c3F)c12` (stereo partly drawn) [Example Z207, 4-(2-((2,6-dimethyltetrahydro-1H-pyrrolizin-7a(5H)-yl)methoxy)-8-fluoro-4-((1R, 2R, 5S)-2-methyl-3,8-diazabicyclo[3.2.1]octan-3-yl)pyrido[4,3-d]pyrimidin-7-yl)-5-ethynylnaphthalen-2-ol], for which the IC50 in experiment [1] (Homo sapiens, AGS, 3 h) came to 13.4 nM; in experiment [2] (Homo sapiens, AGS, 120 h), 32 nM; in experiment [3] (Homo sapiens, ASPC1, 120 h), 91.1 nM.

Turning to `C#Cc1c(F)ccc2cc(O)cc(-c3ncc4c(N5C[C@H]6CC[C@@H](C5)N6)nc(OCC56CC(=C)CN5[C@H]5C[C@H]5C6)nc4c3F)c12` (stereo partly drawn) [Example Z210, 4-(4-((1R,5S)-3,8-diazabicyclo[3.2.1]octan-3-yl)-8-fluoro-2-(((1aS,6aS)-4-methylenehexahydrocyclopropa[b]pyrrolizin-5a(3H)-yl)methoxy)pyrido[4,3-d]pyrimidin-7-yl)-5-ethynyl-6-fluoronaphthalen-2-ol], the IC50 in experiment [1] (Homo sapiens, AGS, 3 h) was found to be 16.6 nM; in experiment [2] (Homo sapiens, AGS, 120 h), 26 nM; in experiment [3] (Homo sapiens, ASPC1, 120 h), 176 nM.

Turning to `C#Cc1c(F)ccc2cc(O)cc(-c3ncc4c(N5C[C@H]6CC[C@@H](C5)N6)nc(OCC56CC(=C)CN5CC(=C)C6)nc4c3Cl)c12` [Example Z211, 4-(4-((1R,5S)-3,8-diazacyclo[3.2.1]octan-3-yl)-8-chloro-2-((2,6-dimethylenetetrahydro-1H-pyrrolizin-7a(5H)-yl)methoxy)pyrido[4,3-d]pyrimidin-7-yl)-5-ethynyl-6-fluoronaphthalen-2-ol], the IC50 amounted to 5.47 nM in experiment [1], 4.8 nM in experiment [2] and 71.9 nM in experiment [3].
